Here are results for 15 compounds from patent publication US10399940B2, “Substituted pyrrolidines and methods of use” (AbbVie S.à.r.l., priority 2016, dated 2019).

The assay concerns the target T1, F508delCFTR (Homo sapiens, UniProt P13569, DEL508-508).
T1 construct: expressed in transfected cells; host or cells: CFBE41o- (human lung derived epithelial cell line), doxycycline-inducible expression
In words: Cell Surface Expression-Horse Radish Peroxidase (CSE-HRP) assay. The format is cell-based. Particulars: CFBE41o-F508delCFTR-HRP cells; for Maximum % activity (with co-corrector): with co-corrector (2 μM); for Maximum % activity (with co-corrector) / Maximum % activity (without co-corrector): normalized to on-plate positive control, highest concentration 20 μM. Put shortly: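 Surface F508delCFTR-HRP was read by luminol luminescence after 18–24 h compound exposure at 33 °C, without or with 2 μM co-corrector. Doses were eight 3-fold steps from 20 μM, in doxycycline-induced (0.5 μg/mL, 72 h) CFBE41o- cells. % activity was scaled to the on-plate 2 μM positive control minus DMSO; EC50 came from a variable-slope sigmoid fit.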

Where [1] appears, read: test compound without co-corrector, 18-24 hours at 33° C., read-out: EC50 (without co-corrector).
Setting [2] is: with co-corrector (2 μM of 3-[(2R,4R)-4-({[1-(2,2-difluoro-1,3-benzodioxol-5-yl)cyclopropyl]carbonyl}amino)-7-methoxy-3,4-dihydro-2H-chromen-2-yl]benzoic acid), read-out: EC50 (with co-corrector).

Where two headings read alike, the source gives them in different places.

T1 sequence (P13569 with tags, fused parts or gaps DEL508-508): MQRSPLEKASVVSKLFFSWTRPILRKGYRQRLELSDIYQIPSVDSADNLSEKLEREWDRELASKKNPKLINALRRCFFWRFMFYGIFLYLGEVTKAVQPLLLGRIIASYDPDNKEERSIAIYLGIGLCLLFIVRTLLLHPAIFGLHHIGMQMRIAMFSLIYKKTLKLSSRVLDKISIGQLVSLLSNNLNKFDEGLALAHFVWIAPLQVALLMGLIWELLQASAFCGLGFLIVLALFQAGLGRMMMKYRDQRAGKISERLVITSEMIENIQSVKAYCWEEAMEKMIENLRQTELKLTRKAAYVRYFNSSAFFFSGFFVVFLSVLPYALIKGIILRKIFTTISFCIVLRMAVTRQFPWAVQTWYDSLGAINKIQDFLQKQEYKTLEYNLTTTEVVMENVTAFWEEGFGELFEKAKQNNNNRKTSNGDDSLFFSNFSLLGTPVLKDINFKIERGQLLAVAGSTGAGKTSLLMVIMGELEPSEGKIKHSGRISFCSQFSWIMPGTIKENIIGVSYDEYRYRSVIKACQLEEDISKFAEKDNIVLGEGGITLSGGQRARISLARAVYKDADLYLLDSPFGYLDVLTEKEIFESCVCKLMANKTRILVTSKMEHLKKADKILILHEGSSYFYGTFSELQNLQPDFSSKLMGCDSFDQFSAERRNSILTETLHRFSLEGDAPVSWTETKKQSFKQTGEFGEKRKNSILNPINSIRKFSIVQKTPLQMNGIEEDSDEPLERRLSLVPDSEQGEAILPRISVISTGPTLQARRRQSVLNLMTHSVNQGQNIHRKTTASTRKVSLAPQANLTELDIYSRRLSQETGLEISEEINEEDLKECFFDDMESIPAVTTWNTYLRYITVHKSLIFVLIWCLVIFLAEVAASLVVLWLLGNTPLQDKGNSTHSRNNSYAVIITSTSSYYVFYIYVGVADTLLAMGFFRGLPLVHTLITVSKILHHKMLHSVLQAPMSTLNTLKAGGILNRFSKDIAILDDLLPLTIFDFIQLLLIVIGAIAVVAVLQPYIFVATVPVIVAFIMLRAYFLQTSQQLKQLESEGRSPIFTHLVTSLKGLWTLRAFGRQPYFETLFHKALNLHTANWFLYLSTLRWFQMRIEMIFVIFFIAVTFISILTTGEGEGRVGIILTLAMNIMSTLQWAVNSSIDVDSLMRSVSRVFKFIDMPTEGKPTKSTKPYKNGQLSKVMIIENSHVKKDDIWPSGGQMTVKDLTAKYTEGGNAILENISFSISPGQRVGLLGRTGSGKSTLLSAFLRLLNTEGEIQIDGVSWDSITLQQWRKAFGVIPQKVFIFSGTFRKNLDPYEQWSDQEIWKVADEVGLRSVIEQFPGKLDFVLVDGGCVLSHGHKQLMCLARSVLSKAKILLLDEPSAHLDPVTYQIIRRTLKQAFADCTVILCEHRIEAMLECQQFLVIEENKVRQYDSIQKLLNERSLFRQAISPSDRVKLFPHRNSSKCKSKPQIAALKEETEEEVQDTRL

Consider `COc1ccc(C(C)(C)C)cc1CO[C@H]1[C@H](C(C)(C)C)[C@@H](C(=O)O)N(C(=O)[C@@H]2CCCO2)[C@H]1c1ccccc1Br` [Example 162, (2S,3R,4S,5S)-5-(2-bromophenyl)-3-tert-butyl-4-[(5-tert-butyl-2-methoxyphenyl)methoxy]-1-[(2S)-oxolane-2-carbonyl]pyrrolidine-2-carboxylic acid], for which the “Maximum % activity (with co-corrector)” value is “+++ (≥350)” and the “Maximum % activity (without co-corrector)” value is given as “+++ (≥200)”. In addition, the EC50 under setting [1] is 1 to 10 µM. Further, the EC50 under setting [2] was < 1 µM.
In the same order, the values of `COc1ncc(C(F)(F)F)cc1CO[C@@H]1[C@H](C(C)(C)C)[C@@H](C(=O)O)N(C(=O)C2CCCC2)[C@H]1c1cccnc1OC(C)C` [Example 163, (2S,3R,4R,5S)-3-tert-butyl-1-(cyclopentanecarbonyl)-4-{[2-methoxy-5-(trifluoromethyl)pyridin-3-yl]methoxy}-5-{2-[(propan-2-yl)oxy]pyridin-3-yl}pyrrolidine-2-carboxylic acid] are “+ (<150)”, “+ (<100)”, > 10 µM and > 10 µM.
As to `COc1ncc(C(F)(F)F)cc1CO[C@@H]1[C@H](C(C)(C)C)[C@@H](C(=O)O)N(C(=O)C2CCCCC2)[C@H]1c1cccnc1OC(C)C` [Example 164, (2S,3R,4R,5S)-3-tert-butyl-1-(cyclohexanecarbonyl)-4-{[2-methoxy-5-(trifluoromethyl)pyridin-3-yl]methoxy}-5-{2-[(propan-2-yl)oxy]pyridin-3-yl}pyrrolidine-2-carboxylic acid], the “Maximum % activity (with co-corrector)” value was “+ (<150)” and the “Maximum % activity (without co-corrector)” value is reported as “+ (<100)”. The EC50 under setting [1] is > 10 µM. Also, the EC50 under setting [2] was > 10 µM.
With `COc1ncc(C2CCC2)cc1CO[C@H]1[C@H](C(C)(C)C)[C@@H](C(=O)O)N(C(=O)[C@@H]2CCCO2)[C@H]1c1ccccc1C(F)F` [Example 165, (2S,3R,4S,5S)-3-tert-butyl-4-[(5-cyclobutyl-2-methoxypyridin-3-yl)methoxy]-5-[2-(difluoromethyl)phenyl]-1-[(2S)-oxolane-2-carbonyl]pyrrolidine-2-carboxylic acid], the “Maximum % activity (with co-corrector)” value is reported as “+++ (≥350)”; the “Maximum % activity (without co-corrector)” value is “++ (≥100 and <200)”. Moreover, the EC50 under setting [1] was in the range of 1 to 10 µM. Moreover, the EC50 under setting [2] was 1 to 10 µM.
As to `COc1ncc(C2CCC2)cc1CO[C@@H]1[C@H](C(C)(C)C)[C@@H](C(=O)O)N(C(=O)OC(C)C)[C@H]1c1ccccc1Br` [Example 166, (2S,3R,4R,5S)-5-(2-bromophenyl)-3-tert-butyl-4-[(5-cyclobutyl-2-methoxypyridin-3-yl)methoxy]-1-{[(propan-2-yl)oxy]carbonyl}pyrrolidine-2-carboxylic acid], the “Maximum % activity (with co-corrector)” value is recorded as “+++ (≥350)” and the “Maximum % activity (without co-corrector)” value was “+ (<100)”. In addition, the 50% effective concentration (EC50) under setting [1] is 1 to 10 µM. Besides, the EC50 under setting [2] lay in the range of 1 to 10 µM.
Turning to `COc1ncc(C(F)(F)F)cc1CO[C@H]1[C@H](C(C)(C)C)[C@@H](C(=O)O)N(C(=O)OC(C)C)[C@H]1c1c(F)cccc1F` [Example 167, (2S,3R,4S,5S)-3-tert-butyl-5-(2,6-difluorophenyl)-4-{[2-methoxy-5-(trifluoromethyl)pyridin-3-yl]methoxy}-1-{[(propan-2-yl)oxy]carbonyl}pyrrolidine-2-carboxylic acid], the “Maximum % activity (with co-corrector)” value is “++ (≥150 and <350)”; the “Maximum % activity (without co-corrector)” value is “+ (<100)”. Besides, the EC50 under setting [1] is 1 to 10 µM. Besides, under setting [2], the EC50 is 1 to 10 µM.
Regarding `COc1ncc(C2CCC2)cc1CO[C@H]1[C@H](C(C)(C)C)[C@@H](C(=O)O)N(C(=O)OC(C)C)[C@H]1c1ccccc1C1CC1` [Example 168, (2S,3R,4S,5S)-3-tert-butyl-4-[(5-cyclobutyl-2-methoxypyridin-3-yl)methoxy]-5-(2-cyclopropylphenyl)-1-{[(propan-2-yl)oxy]carbonyl}pyrrolidine-2-carboxylic acid], the “Maximum % activity (with co-corrector)” value is on record as “+++ (≥350)”; the “Maximum % activity (without co-corrector)” value is “++ (≥100 and <200)”. Also, the EC50 under setting [1] was 1 to 10 µM. In addition, the EC50 under setting [2] was in the range of 1 to 10 µM.
Consider `COc1ncc(C2CCC2)cc1CO[C@H]1[C@H](C(C)(C)C)[C@@H](C(=O)O)N(C(=O)C2CCCCC2)[C@H]1c1cccnc1OC(C)C` [Example 169, (2S,3R,4S,5S)-3-tert-butyl-4-[(5-cyclobutyl-2-methoxypyridin-3-yl)methoxy]-1-(cyclohexanecarbonyl)-5-{2-[(propan-2-yl)oxy]pyridin-3-yl}pyrrolidine-2-carboxylic acid], for which the “Maximum % activity (with co-corrector)” value is given as “+++ (≥350)” and the “Maximum % activity (without co-corrector)” value was “+++ (≥200)”. Further, the EC50 under setting [1] was in the range of 1 to 10 µM. Under setting [2], the EC50 fell in the range of 1 to 10 µM.
With `COc1ncc(C2CCC2)cc1CO[C@H]1[C@H](C(C)(C)C)[C@@H](C(=O)O)N(C(=O)[C@@H]2CCCCO2)[C@H]1c1ccccc1C` [Example 170, (2S,3R,4S,5S)-3-tert-butyl-4-[(5-cyclobutyl-2-methoxypyridin-3-yl)methoxy]-5-(2-methylphenyl)-1-[(2S)-oxane-2-carbonyl]pyrrolidine-2-carboxylic acid], the “Maximum % activity (with co-corrector)” value is “+++ (≥350)” and the “Maximum % activity (without co-corrector)” value is on record as “+++ (≥200)”. In addition, under setting [1], the EC50 was 1 to 10 µM. Besides, under setting [2], the EC50 is < 1 µM.
In the same order, the values of `COc1ncc(C2CCC2)cc1CO[C@H]1[C@H](C(C)(C)C)[C@@H](C(=O)O)N(C(=O)[C@@H]2CCCCO2)[C@H]1c1ccccc1C1CC1` [Example 171, (2S,3R,4S,5S)-3-tert-butyl-4-[(5-cyclobutyl-2-methoxypyridin-3-yl)methoxy]-5-(2-cyclopropylphenyl)-1-[(2S)-oxane-2-carbonyl]pyrrolidine-2-carboxylic acid] are “+++ (≥350)”, “+++ (≥200)”, 1 to 10 µM and 1 to 10 µM.
For `COc1ccc(C(C)(C)C)cc1CO[C@H]1[C@H](C(C)(C)C)[C@@H](C(=O)O)N(C(=O)[C@@H]2CCCO2)[C@H]1c1ccccc1C1CC1` [Example 172, (2S,3R,4S,5S)-3-tert-butyl-4-[(5-tert-butyl-2-methoxyphenyl)methoxy]-5-(2-cyclopropylphenyl)-1-[(2S)-oxolane-2-carbonyl]pyrrolidine-2-carboxylic acid], in that order: “+++ (≥350)”, “+++ (≥200)”, 1 to 10 µM and 1 to 10 µM.
In the same order, the values of `COc1ncc(Br)cc1CO[C@H]1[C@H](C(C)(C)C)[C@@H](C(=O)O)N(C(=O)[C@@H]2CCCO2)[C@H]1c1ccccc1C1CC1` [Example 173, (2S,3R,4S,5S)-4-[(5-bromo-2-methoxypyridin-3-yl)methoxy]-3-tert-butyl-5-(2-cyclopropylphenyl)-1-[(2S)-oxolane-2-carbonyl]pyrrolidine-2-carboxylic acid] are “+++ (≥350)”, “+++ (≥200)”, 1 to 10 µM and 1 to 10 µM.
For `COc1ccc(C(F)(F)F)cc1CO[C@H]1[C@H](C(C)(C)C)[C@@H](C(=O)O)N(C(=O)[C@@H]2CCCCO2)[C@H]1c1ccccc1C` [Example 174, (2S,3R,4S,5S)-3-tert-butyl-4-{[2-methoxy-5-(trifluoromethyl)phenyl]methoxy}-5-(2-methylphenyl)-1-[(2S)-oxane-2-carbonyl]pyrrolidine-2-carboxylic acid], the “Maximum % activity (with co-corrector)” value was “+++ (≥350)” and the “Maximum % activity (without co-corrector)” value is given as “+++ (≥200)”. Under setting [1], the EC50 is < 1 µM. Moreover, under setting [2], the EC50 was < 1 µM.
With `COc1cc(C(F)(F)F)ccc1CO[C@H]1[C@H](C(C)(C)C)[C@@H](C(=O)O)N(C(=O)[C@@H]2CCCCO2)[C@H]1c1ccccc1C` [Example 175, (2S,3R,4S,5S)-3-tert-butyl-4-{[2-methoxy-4-(trifluoromethyl)phenyl]methoxy}-5-(2-methylphenyl)-1-[(2S)-oxane-2-carbonyl]pyrrolidine-2-carboxylic acid], the “Maximum % activity (with co-corrector)” value is recorded as “+++ (≥350)” and the “Maximum % activity (without co-corrector)” value was “+++ (≥200)”. The EC50 under setting [1] fell in the range of 1 to 10 µM. The EC50 under setting [2] was < 1 µM.
For `COc1ncc(C2CCC2)cc1CO[C@H]1[C@H](C(C)(C)C)[C@@H](C(=O)O)N(C(=O)[C@@H]2CCCCO2)[C@H]1c1ccccc1C(C)C` [Example 176, (2S,3R,4S,5S)-3-tert-butyl-4-[(5-cyclobutyl-2-methoxypyridin-3-yl)methoxy]-1-[(2S)-oxane-2-carbonyl]-5-[2-(propan-2-yl)phenyl]pyrrolidine-2-carboxylic acid], in that order: “+++ (≥350)”, “+++ (≥200)”, 1 to 10 µM and < 1 µM.

The term EC50 denotes the concentration giving half of the maximal effect.
